Laboratory results as given in patent US20160206688A1, “METHODS FOR TREATING BACTEREMIA AND OSTEOMYELITIS USING ORITAVANCIN” (THE MEDICINES COMPANY, priority 2013, published 2016).
≈ marks a conversion by molar mass, not a printed value. Like-named read-outs stand apart in the source and are kept apart here.

Legend:
[1] = Oritavancin concentrations (PK samples) in compassionate use subject; format: in vivo, human
Protocol: In response to a compassionate use request, oritavancin was administered to a subject having bacteremia.
Treatment as of Feb. 8, 2013: oritavancin (1200 mg IV, Q2D×3 times, then QW×5 times).
PK samples have been taken.
Attending physician kept the infusion time at 4 hours.
The concentrations are consistent with expectations from modeling (modeled oritavancin concentration-time profile is attached), with oritavancin attaining peaks of about 120-130 ug/mL and troughs of around 5-10 ug/mL for the loading phase and of around 5 ug/mL for the weekly dosing phase.

S. agalactiae = test: Broth microdilution MIC, US isolates 2011-2012, blood vs non-blood; format: cell-based
Protocol: (§1) 527 E. faecalis, 176 E. faecium, and 790 BHS (335 S. pyogenes and 455 S. agalactiae) clinical, single patient, non-consecutive isolates were collected in 2011-2012 from 46 sites geographically distributed across the United States. The MICs were determined by broth microdilution testing performed in accordance with CLSI M7 and M100 guidelines. From the resulting database, this analysis focused on the activities of ORI, vancomycin (VAN), daptomycin (DAP), and linezolid (LZD) according to specimen source.

E. faecium = test: as above; format: cell-based
Protocol: as §1

E. faecalis = test: as above; format: cell-based
Protocol: as §1

S. pyogenes = test: as above; format: cell-based
Protocol: as §1

[2] = test system: Coagulase-negative staphylococci; test: Broth microdilution MIC, European bacteraemia isolates 2010-2012; format: cell-based, coagulase-negative staphylococci (CoNS)
How it was run: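 Bacteraemia isolates from European, Israeli, Russian, Turkish and Ukrainian hospitals (2010-2012) tested centrally by CLSI M07-A9 broth microdilution in cation-adjusted Mueller-Hinton broth with 0.002% polysorbate-80. QC strains E. faecalis ATCC 29212 and S. aureus ATCC 29213; interpretation per CLSI M100-S23 and EUCAST 2013.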

[3] = CoNS, Methicillin-resistant (509), at ≦0.008 mg/L
[4] = CoNS, Methicillin-susceptible (137), at ≦0.008 mg/L
[5] = CoNS, Teicoplanin MIC ≧8 mg/L (72), at ≦0.008 mg/L
[6] = Table 1, CoNS, Methicillin-resistant (509)
[7] = Table 1, CoNS, Methicillin-susceptible (137)
[8] = Table 2, Coagulase-negative staphylococci (646)
[9] = read-out: cumulative % inhibited at MIC

In the case of `CN[C@H](CC(C)C)C(=O)N[C@H]1C(=O)N[C@@H](CC(N)=O)C(=O)N[C@H]2C(=O)N[C@H]3C(=O)N[C@H](C(=O)N[C@H](C(=O)O)c4cc(O)cc(O)c4-c4cc3ccc4O)[C@H](O[C@H]3C[C@](C)(N)[C@@H](O)[C@H](C)O3)c3ccc(c(Cl)c3)Oc3cc2cc(c3O[C@@H]2O[C@H](CO)[C@@H](O)[C@H](O)[C@H]2O[C@H]2C[C@](C)(NCc3ccc(-c4ccc(Cl)cc4)cc3)[C@@H](O)[C@H](C)O2)Oc2ccc(cc2Cl)[C@H]1O` [Oritavancin, N-(4-(4-chlorophenyl)benzyl)A82846B], the “peaks (oritavancin concentration)” value ([1]; 1200 mg IV, Q2D x3 then QW x5) is reported as 120 to 130 µg/mL, the Oritavancin concentration ([1]; Peak - First Dose, 1200 mg IV) is reported as 114.793 µg/mL and the Oritavancin concentration ([1]; Peak - Third Dose, 1200 mg IV) is reported as 133.581 µg/mL. For the same molecule, the Oritavancin concentration ([1]; Trough - First Dose, 1200 mg IV) was 4.272 µg/mL, the Oritavancin concentration ([1]; Trough - Second Dose, 1200 mg IV) was 7.614 µg/mL and the “troughs (oritavancin concentration)” value ([1]; loading phase) was 5 to 10 µg/mL. The Oritavancin concentration ([1]; trough, fifth dose, 1200 mg IV) was 4.584 µg/mL, the Oritavancin concentration ([1]; trough, fourth dose, 1200 mg IV) was 4.256 µg/mL and the Oritavancin concentration ([1]; trough, sixth dose, 1200 mg IV) was 4.489 µg/mL. The Oritavancin concentration ([1]; trough, third dose, 1200 mg IV) was 3.775 µg/mL, the accumulation ([1]; weekly dosing phase) was “no evidence of substantial accumulation” and the “troughs (oritavancin concentration)” value ([1]; weekly dosing phase) was “around 5 ug/mL”. The MIC90 (S. agalactiae; Blood, N 100) was 0.25 µg/mL (≈ 0.139 µM), the MIC90 (S. agalactiae; Non-Blood, N 355) was 0.25 µg/mL (≈ 0.139 µM) and the MIC90 (E. faecium; Blood, N 84) was 0.12 µg/mL (≈ 0.0669 µM). For the same molecule, the MIC90 (E. faecium; Non-Blood, N 92) was 0.12 µg/mL (≈ 0.0669 µM), the MIC90 (E. faecalis; Blood, N 116) was 0.06 µg/mL (≈ 0.0335 µM) and the MIC90 (E. faecalis; Non-Blood, N 411) was 0.06 µg/mL (≈ 0.0335 µM). The MIC90 (S. pyogenes; Blood, N 53) was 0.25 µg/mL (≈ 0.139 µM), the MIC90 (S. pyogenes; Non-Blood, N 282) was 0.25 µg/mL (≈ 0.139 µM) and the MIC50 [2] was 0.03 µg/mL (≈ 0.0167 µM). The MIC90 [2] was 0.06 µg/mL (≈ 0.0335 µM), the “MIC50 and MIC90 lower than linezolid” value ([2]; CoNS isolates) was 16 fold and the “MIC values lower than vancomycin” value ([2]; CoNS isolates) was 32- to 64 fold. The “MIC results relative to strains with teicoplanin MIC≦4 mg/L” value ([2]; CoNS with decreased susceptibility to teicoplanin (MIC≧8 mg/L)) was “two-fold higher”, the MIC ([2]; CoNS with decreased susceptibility to teicoplanin (MIC≧8 mg/L), read-out: highest MIC value) was 0.25 µg/mL (≈ 0.139 µM) and the “Number inhibited at MIC” value ([2]; CoNS, Methicillin-resistant (509), at 0.015 mg/L) was 77. For the same molecule, the “Number inhibited at MIC” value ([2]; CoNS, Methicillin-resistant (509), at 0.03 mg/L) was 181, the “Number inhibited at MIC” value ([2]; CoNS, Methicillin-resistant (509), at 0.06 mg/L) was 114 and the “Number inhibited at MIC” value ([2]; CoNS, Methicillin-resistant (509), at 0.12 mg/L) was 33. For the same molecule, the “Number inhibited at MIC” value ([2]; CoNS, Methicillin-resistant (509), at 0.25 mg/L) was 4, the “Number inhibited at MIC” value [2, 3] was 100 and the “cumulative % inhibited at MIC” value [2, 3] was 19.7%. The “Number inhibited at MIC” value ([2]; CoNS, Methicillin-susceptible (137), at 0.015 mg/L) was 28, the “Number inhibited at MIC” value ([2]; CoNS, Methicillin-susceptible (137), at 0.03 mg/L) was 50 and the “Number inhibited at MIC” value ([2]; CoNS, Methicillin-susceptible (137), at 0.06 mg/L) was 21. For the same molecule, the “Number inhibited at MIC” value ([2]; CoNS, Methicillin-susceptible (137), at 0.12 mg/L) was 1, the “Number inhibited at MIC” value [2, 4] was 37 and the “cumulative % inhibited at MIC” value [2, 4] was 27.0%. The “Number inhibited at MIC” value ([2]; CoNS, Teicoplanin MIC ≧8 mg/L (72), at 0.015 mg/L) was 1, the inhibition at 0.015 µg/mL ([2]; CoNS, Teicoplanin MIC ≧8 mg/L (72), at 0.015 mg/L, read-out: cumulative % inhibited at MIC) was 2.8% and the “Number inhibited at MIC” value ([2]; CoNS, Teicoplanin MIC ≧8 mg/L (72), at 0.03 mg/L) was 15. For the same molecule, the inhibition at 0.03 µg/mL ([2]; CoNS, Teicoplanin MIC ≧8 mg/L (72), at 0.03 mg/L, read-out: cumulative % inhibited at MIC) was 23.6%, the “Number inhibited at MIC” value ([2]; CoNS, Teicoplanin MIC ≧8 mg/L (72), at 0.06 mg/L) was 36 and the inhibition at 0.06 µg/mL ([2]; CoNS, Teicoplanin MIC ≧8 mg/L (72), at 0.06 mg/L, read-out: cumulative % inhibited at MIC) was 73.6%. The “Number inhibited at MIC” value ([2]; CoNS, Teicoplanin MIC ≧8 mg/L (72), at 0.12 mg/L) was 15, the inhibition at 0.12 µg/mL ([2]; CoNS, Teicoplanin MIC ≧8 mg/L (72), at 0.12 mg/L, read-out: cumulative % inhibited at MIC) was 94.4% and the “Number inhibited at MIC” value ([2]; CoNS, Teicoplanin MIC ≧8 mg/L (72), at 0.25 mg/L) was 4. The inhibition at 0.25 µg/mL ([2]; CoNS, Teicoplanin MIC ≧8 mg/L (72), at 0.25 mg/L, read-out: cumulative % inhibited at MIC) was 100%, the “Number inhibited at MIC” value [2, 5] was 1 and the “cumulative % inhibited at MIC” value [2, 5] was 1.4%. It also gave an MIC50 [2, 6] of 0.03 µg/mL (≈ 0.0167 µM), an MIC90 [2, 6] of 0.06 µg/mL (≈ 0.0335 µM) and an MIC50 [2, 7] of 0.03 µg/mL (≈ 0.0167 µM). The MIC90 [2, 7] was 0.06 µg/mL (≈ 0.0335 µM), the MIC50 ([2]; Table 1, CoNS, Teicoplanin MIC ≧8 mg/L (72), read-out: MIC 50%) was 0.06 µg/mL (≈ 0.0335 µM) and the MIC90 ([2]; Table 1, CoNS, Teicoplanin MIC ≧8 mg/L (72), read-out: MIC 90%) was 0.12 µg/mL (≈ 0.0669 µM). For the same molecule, the MIC50 [2, 8] was 0.03 µg/mL (≈ 0.0167 µM), the MIC90 [2, 8] was 0.06 µg/mL (≈ 0.0335 µM) and the “MIC Range” value [2, 8] was “≦0.008-0.25 mg/L”. For the same molecule, the inhibition at 0.015 µg/mL [2, 9] was 41.8%, the inhibition at 0.03 µg/mL [2, 9] was 79.4% and the inhibition at 0.06 µg/mL [2, 9] was 96.7%. It also gave an inhibition at 0.12 µg/mL [2, 9] of 100%, an inhibition at 0.015 µg/mL ([2]; read-out: cumulative % inhibited at MIC, CoNS, Methicillin-resistant (509), at 0.015 mg/L) of 34.8% and an inhibition at 0.03 µg/mL ([2]; read-out: cumulative % inhibited at MIC, CoNS, Methicillin-resistant (509), at 0.03 mg/L) of 70.3%. For the same molecule, the inhibition at 0.06 µg/mL ([2]; read-out: cumulative % inhibited at MIC, CoNS, Methicillin-resistant (509), at 0.06 mg/L) was 92.7%, the inhibition at 0.12 µg/mL ([2]; read-out: cumulative % inhibited at MIC, CoNS, Methicillin-resistant (509), at 0.12 mg/L) was 99.2% and the inhibition at 0.25 µg/mL ([2]; read-out: cumulative % inhibited at MIC, CoNS, Methicillin-resistant (509), at 0.25 mg/L) was 100%. It also gave an inhibition at 0.015 µg/mL ([2]; read-out: cumulative % inhibited at MIC, CoNS, Methicillin-susceptible (137), at 0.015 mg/L) of 47.5%, an inhibition at 0.03 µg/mL ([2]; read-out: cumulative % inhibited at MIC, CoNS, Methicillin-susceptible (137), at 0.03 mg/L) of 83.9% and an inhibition at 0.06 µg/mL ([2]; read-out: cumulative % inhibited at MIC, CoNS, Methicillin-susceptible (137), at 0.06 mg/L) of 99.3%. It also gave an inhibition at 0.12 µg/mL ([2]; read-out: cumulative % inhibited at MIC, CoNS, Methicillin-susceptible (137), at 0.12 mg/L) of 100%.
